Data from US20250375417A1, “OREXIN RECEPTOR 2 (OX2R) AGONIST FOR USE IN NARCOLEPSY TYPE 1 (NT1)” (TAKEDA PHARMACEUTICAL COMPANY LIMITED, priority 2024, published 2025).

What was measured:
Assay type in all cases: in vivo, human
[1] = tested on: participants with NT1; test: Functional Impacts of Narcolepsy Instrument (FINI), Phase 2 NT1 trial; conditions: range across Compound A doses
From the text: The functional impact of NT1 on subjects can be assessed by the FINI. The FINI is a fit-for-purpose 28-item instrument developed by the sponsor to ensure easy to interpret concepts that are meaningful to narcolepsy patients. The FINI measures the functional impacts of narcolepsy across 6 domains: Tiredness (items 1-7), Cognitive Functioning (items 8-12), Cataplexy (items 13-17), Social Activities (items 18-21), Everyday Activities (items 22-25), and Everyday Responsibilities (items 26-28). Each item asks about the impact that narcolepsy has had on their daily functioning during the past 7 days, and scored from 0-4, where 0 indicates the best health and 4 the worst. There is no total score; for each participant, an average score is calculated for each domain, if at least half the items in the domain have been answered:
Sum of responses in the domain/Number of completed items in the domain
The average domain score is then standardized to a 0-100 scale, where 0 indicates the best health and 100 the worst health. A decrease from baseline would thus indicate improved health:
Standardized score=average score/4×100
An analysis of exploratory data from the trial investigated the effect of Compound A on functioning and HRQoL in individuals with ICSD-3 confirmed NT1. Participants aged 18-70 years (Japan: 16-70), with an Epworth Sleepiness Scale (ESS) score>12, and ≥4 partial/complete episodes of cataplexy/week were eligible for inclusion. Participants were randomized to oral Compound A (0.5 mg twice 3 hours apart, 2 mg twice 3 hours apart, 2 mg then 5 mg 3 hours later, or 7 mg once-daily), or placebo. Exploratory endpoints included 3 domains (social activities, everyday activities, and everyday responsibilities) from the 6-domain Functional Impacts of Narcolepsy Instrument (FINI) in which each item uses 5-point Likert scale and higher standardized domain scores (0-100) indicate more severe impact; the 36-item short-form (SF-36); and the EuroQoL 5-Dimensions 5-Levels (EQ-5D-5L) questionnaire.

[2] = tested on: participants with NT1; test: Daily sleep diaries (disturbing dreams), Phase 2 NT1 trial
From the text: Polysomnography (PSG) was collected at baseline and after 27 and 54 days of treatment. Sleep was manually scored following AASM guidelines; sleep metrics were extracted then computed by whole night and by quarter-night. Continuous accelerometry (Empatica EmbracePlus watch) allowed assessment of sleep in a naturalistic manner at home. Daily sleep diaries were used to capture subjective reports. Mixed effects models were fit with treatment, quarter-night, visit, and their interactions as fixed effects and random intercepts per subject. A reference PSG dataset (Vilela M, et al. J Sleep Res 2024; e14216) from CHU Montpellier (49 clinical controls and 114 patients with NT1, all drug-free) was analyzed to establish DNS characteristics of NT1.
At baseline, participants reported disturbing dreams, which contribute to DNS, an average of 2.8 nights/week (no significant differences across cohorts) in response to “Did you have disturbing dreams, nightmares, or frightening dreams during the night?” These reductions potentially relate to improvements in REM regulation with Compound A.

[3] = tested on: participants with NT1; test: SF-36 and EQ-5D-5L health-related quality of life, Phase 2 NT1 trial
From the text: Health conditions such as mobility, self-care, usual activities, pain/discomfort, and/or anxiety/depression as related to NT1 can be assessed by the EQ-5D-5L assessment. The EQ-5D-5L is a standardized 5-item measure of health status developed by the EuroQol Group to provide a simple, generic measure of health for clinical and economic appraisal that has been used in a wide range of health conditions and treatments (Herdman et al. 2011; Janssen et al. 2013). The EQ-5D-5L consists of a descriptive system and the EuroQol visual analog scale (VAS). The descriptive system comprises 5 dimensions: mobility, self-care, usual activities, pain/discomfort, and anxiety/depression. The EuroQol VAS records the participant's self-rated health on a vertical VAS. This can be used as a quantitative measure of health outcome that reflects the participant's own judgment. The scores on these 5 dimensions can be presented as a health profile or can be converted to a single summary index number (utility) reflecting preferability compared with other health profiles.
Patient health self-assessments can be measured by the SF-36. The SF-36 is a 36-item, participant-reported survey of participant health. […] Similar to each scale, the component scores are also positively scored so that higher scores represent better health-related quality-of-life. […]

[4] = tested on: participants with NT1; test: Epworth Sleepiness Scale (ESS), Phase 2 NT1 trial
From the text: In some aspects of the methods described herein, the subject experiences a lower Epworth Sleepiness Scale (ESS) total score after a treatment period compared to an untreated subject. The ESS is a subjective, self-administered scale that has been validated and used extensively as a key endpoint in studies in patients with narcolepsy to measure excessive daytime sleepiness (EDS). The ESS provides individuals with 8 different situations of daily life and asks them how likely they are to fall asleep in those situations (scored 0 to 3) and to try to imagine their likelihood of dozing even if they have not actually been in the identical situation; the scores are summed to give an overall score of 0 to 24. Higher scores indicate stronger subjective daytime sleepiness, and scores below 10 are considered to be within the reference range.
In certain aspects, the ESS is administered to assess sleep propensity on selected days indicated in the Schedule of Activities for the trial. Participants are asked to evaluate their subjective sleepiness based on recalling their most recent daily life experiences.
Randomization was stratified by region. Starting on the morning of Day 1, the study drug was administered at approximately the same time each day for 8 or 12 weeks. […]

CCS(=O)(=O)N[C@@H]1[C@H](Cc2cccc(-c3cc(F)cc(F)c3)c2F)N(C(=O)C(C)(C)O)CC1(F)F [Compound A, N-{(2S,3R)-4,4-difluoro-1-(2-hydroxy-2-methylpropanoyl)-2-[(2,3′,5′-trifluoro[1,1′-biphenyl]-3-yl)methyl]pyrrolidin-3-yl}ethanesulfonamide]
FINI-Everyday Activities, LS mean change from baseline to Week 8 [1]: −41.4 to −54.5
FINI-Everyday Responsibilities, LS mean change from baseline to Week 8 [1]: −35.0 to −53.7
FINI-Social Activities, LS mean change from baseline to Week 8 [1]: −29.9 to −43.1
Rate of disturbing dreams, average estimated change from baseline ([2]; across all treated cohorts and weeks): −1.5 nights/week
Rate of disturbing dreams, range of estimated change from baseline ([2]; range across all treated cohorts and weeks): −1.8 to −0.8 nights/week
SF-36 summary scores, change from baseline versus placebo ([3]; all Compound A doses (FIG. 22)): Statistically significant improvements
EQ-5D (index score and VAS), change from baseline versus placebo ([3]; all Compound A doses (FIG. 23)): Statistically significant improvements
Change from baseline to Week 8 in ESS versus placebo ([4]; all dose groups, adjusted for multiple comparisons): statistically significant changes
Participants with ESS≤10 ([4]; weeks 4 and 8 (FIG. 4)): Most participants achieved ESS total score≤10
